Holding throughout (type): cell-based, human
Assay [1] relates to WA09 hESCs. Briefly: hESC differentiation to neural crest-like versus neural progenitor cells, flow cytometry for p75 and Hnk1. The following applies: for generation of Hnk1+ p75+ (Hnk1bright p75bright) neural crest-like population: WA09 hESCs treated 15 days, FIG. 2A, factors added to or omitted from SB 431542/BIO media; for proportion of Hnk1bright p75bright cells: dose-response, added to cultures treated with SB 431542 and Noggin, BIO 0-2 µM, Wnt3a 0-50 ng/ml. The protocol: (§1) NPC differentiation was performed as described (18). Briefly, cells were plated on Geltrex-coated plates in defined media without Activin A, supplemented with 20 μM SB 431542 (Tocris) and 500 ng/ml Noggin (R&D systems) for 11 days with or without 2 μM of (2′Z,3′E)-6-Bromoindirubin-3′-oxime (BIO) (GSK3 Inhibitor IX, Calbiochem), or 15 ng/ml Dickkopf (R&D Systems). For direct neural crest differentiation, cells were plated at a density of 1×10^5 cells/cm^2 in defined media lacking Activin A, supplemented with 2 μM BIO and 20 μM SB 431542 (SB media). Media was replaced every day. Additional experiments were performed by adding 25 ng/ml Wnt3a, 500 ng/ml Noggin or 5-50 ng/ml of BMP4 (R&D Systems) to SB media. For peripheral neuron differentiation, neural crest cells were plated in poly-L-ornithine/laminin or Geltrex-coated 4-well chamber slides. The following day, SB media was switched to DMEM/F12 N2 supplemented media with BDNF (10 ng/ml), GDNF (10 ng/ml), NGF (10 ng/ml), neurotrophin-3 (10 ng/ml), ascorbic acid (200 μM) and dbcAMP (0.5 mM). Cells were grown for 10-14 days and assayed by immunocytochemisty. Neural crest cells were cultured in media containing 10% fetal bovine serum and passed every 4-5 days. Osteocyte, adipocyte and chondrocyte differentiation was performed according to manufacturer directions using StemPro Osteogenesis Kit, StemPro Chondrogenesis Differentiation Kit, StemPro Adipogenesis Differentiation Kit (Invitrogen), respectively.
Cells were fixed in 4% paraformaldehyde in phosphate buffered saline (PBS) and stained with primary antibodies listed in attached Table 1 (below). Secondary antibodies were Alexa Fluor 488 and Alexa Fluor 555-conjugated (Invitrogen). DNA was visualized by staining with DAPI. For flow cytometry, one million live cells dissociated with Accutase were re-suspended in PBS and incubated for 30 minutes on ice with primary conjugated antibodies, listed in Table 1. Unconjugated p75 (neurotrophin receptor) and Hnk1 antibodies were detected with Alexa Fluor 633 and Alexa Fluor 488-conjugated secondary antibodies, respectively. Cells were analyzed using the CyAN ADP (Beckman Coulter) and FlowJo software.
For orientation: Flow cytometry measures light scatter and fluorescence of single cells or particles in a stream.

In the next assay the test system is β-catenin signaling. Briefly: Top-Flash luciferase reporter assay for β-catenin activity in hESCs. The note with it: hESC cultures; Top-Flash normalized to Fop-Flash. The method, then: Data is expressed as the fold-increase in luciferase activity over untreated cells after normalization to the Fop-Flash control. All assays were performed in triplicate and represented as +/−standard deviation. (B) Top-Flash activity in hESCs grown in defined media treated with Wnt3a, Dkk1, Wnt3a and Dkk1 or BIO. Experiments were performed in triplicate and represented as +/−standard deviation.

For assay [2], the system named is WA09 hESCs. Briefly: hESC differentiation, immunostaining for neural crest markers (p75, Ap2, Hnk1) and NPC markers (Pax6, Sox2). The protocol:
as §1, with “Briefly, cells were plated on Geltrex-coated plates in defined media without Activin A, supplemented with 20 μM SB 431542 (Tocris) and 500 ng/ml Noggin (R&D systems) for 11 days with or without 2 μM of (2′Z,3′E)-6-Bromoindirubin-3′-oxime (BIO) (GSK3 Inhibitor IX, Calbiochem), or 15 ng/ml Dickkopf (R&D Systems). For direct neural crest differentiation, cells were plated at a density of 1×10^5 cells/cm^2 in defined media lacking Activin A, supplemented with 2 μM BIO and 20 μM SB 431542 (SB media).” left out
Cells were fixed in 4% paraformaldehyde in phosphate buffered saline (PBS) and stained with primary antibodies listed in attached Table 1 (below). […] DNA was visualized by staining with DAPI. For flow cytometry, one million live cells dissociated with Accutase were re-suspended in PBS and incubated for 30 minutes on ice with primary conjugated antibodies, listed in Table 1. […] Cells were analyzed using the CyAN ADP (Beckman Coulter) and FlowJo software.

Setting [3] is: BIO added to SB 431542 and Noggin (Smad inhibition), 12 days.

“Also recorded” adds a separate entry of the source.

Here are results for six molecules from patent US10053667B2, “Differentiation of human pluripotent stem cells to multipotent neural crest cells” (UNIVERSITY OF GEORGIA RESEARCH FOUNDATION, INC., priority 2010, dated 2018).

As for `O=C1Nc2cc(Br)ccc2/C1=C1/Nc2ccccc2/C1=N\O` [BIO, (2′Z,3′E)-6-Bromoindirubin-3′-oxime], in the assay with WA09 hESCs [1], the “generation of Hnk1+ p75+ (Hnk1bright p75bright) neural crest-like population” value (“generation of Hnk1+ p75+” below) is on record as “ineffective” and the “proportion of Hnk1bright p75bright cells” value was “increased the proportion of Hnk1^bright p75^bright cells in a dose-dependent manner”. In addition, the “activation of β-catenin-dependent luciferase reporter (canonical Wnt pathway)” value in the assay with β-catenin signaling is on record as “activates β-catenin signaling; also recorded: efficiently activates the canonical Wnt pathway”. In the assay on WA09 hESCs [2] (setting [3]), the “formation of Pax6+ cells” value is reported as “suppresses this; also recorded: severely inhibited the formation of Pax6^+ cells” and the “percentage of p75+ cells” value was “generates p75+ Pax6− neural crest-like cells; also recorded: markedly increasing the percentage of p75^+ cells”. Besides, the Sox2 expression result in the assay on WA09 hESCs [2] (immunostaining, Smad signaling suppressed, range of BIO concentrations) was “dose-dependent response”.

With `NC(=O)c1ccc(-c2nc(-c3ccc4c(c3)OCO4)c(-c3ccccn3)[nH]2)cc1` [SB 431542], the “generation of Hnk1+ p75+” value in the assay with WA09 hESCs [1] is reported as “ineffective”.

B1: Dickkopf: a Wnt antagonist (R&D Systems) (protein, UniProt O94907 32-266, looked up)
Dickkopf-related protein 1: TLNSVLNSNAIKNLPPPLGGAAGHPGSAVSAAPGILYPGGNKYQTIDNYQPYPCAEDEECGTDEYCASPTRGGDAGVQICLACRKRRKRCMRHAMCCPGNYCKNGICVSSDQNHFRGEIEETITESFGNDHSTLDGYSRRTTLSSKMYHTKGQEGSVCLRSSDCASGLCCARHFWSKICKPVLKEGQVCTKHRRKGSHGLEIFQRCYCGEGLSCRIQKDHHQASNSSRLHTCQRH
For the molecule B1, the “p75bright cells in NPC cultures” value in the assay on WA09 hESCs [1] (NPC cultures obtained by treatment with Noggin and SB 431542) is listed as “decreases the p75bright population; also recorded: severely reduced the low level of p75^bright cells”.

B2: Wnt3a: recombinant Wnt protein, Wnt signaling promoter (protein, UniProt P56704 19-352, looked up)
Protein Wnt-3a: SYPIWWSLAVGPQYSSLGSQPILCASIPGLVPKQLRFCRNYVEIMPSVAEGIKIGIQECQHQFRGRRWNCTTVHDSLAIFGPVLDKATRESAFVHAIASAGVAFAVTRSCAEGTAAICGCSSRHQGSPGKGWKWGGCSEDIEFGGMVSREFADARENRPDARSAMNRHNNEAGRQAIASHMHLKCKCHGLSGSCEVKTCWWSQPDFRAIGDFLKDKYDSASEMVVEKHRESRGWVETLRPRYTYFKVPTERDLVYYEASPNFCEPNPETGSFGTRDRTCNVSSHGIDGCDLLCCGRGHNARAERRREKCRCVFHWCCYVSCQECTRVYDVHTCK
In the case of B2, in the assay on WA09 hESCs [1], the “generation of Hnk1+ p75+” value is given as “can substitute for BIO” and the “proportion of Hnk1bright p75bright cells” value is reported as “increased the proportion of Hnk1^bright p75^bright cells in a dose-dependent manner”.

B3: BMP4: bone morphogenic protein added to SB media (R&D Systems) (protein, UniProt P12644 293-408, looked up)
Bone morphogenetic protein 4: SPKHHSQRARKKNKNCRRHSLYVDFSDVGWNDWIVAPPGYQAFYCHGDCPFPLADHLNSTNHAIVQTLVNSVNSSIPKACCVPTELSAISMLYLDEYDKVVLKNYQEMVVEGCGCR
B3: the “generation of Hnk1+ p75+” value in the assay on WA09 hESCs [1] is on record as “suppressed the transition to an Hnk1^bright p75^bright state”.

B4: Noggin: BMP inhibitor protein (R&D systems) (protein, UniProt Q13253 28-232, looked up)
Noggin: QHYLHIRPAPSDNLPLVDLIEHPDPIFDPKEKDLNETLLRSLLGGHYDPGFMATSPPEDRPGGGGGAAGGAEDLAELDQLLRQRPSGAMPSEIKGLEFSEGLAQGKKQRLSKKLRRKLQMWLWSQTFCPVLYAWNDLGSRFWPRYVKVGSCFSKRSCSVPEGMVCKPSKSVHLTVLRWRCQRRGGQRCGWIPIQYPIISECKCSC
Turning to B4, the “generation of Hnk1+ p75+” value with WA09 hESCs [1] is “no major impact”.
